Results: patent US9681664B2, “Macrocyclic picolinamides as fungicides” (Dow Agrosciences LLC, priority 2012, dated 2017)
Like-named read-outs stand apart in the source and are kept apart here.

Tests used:
[1] = tested on: Mycosphaerella graminicola; Anamorph: Septoria tritici; assay: Leaf blotch of wheat (SEPTTR) disease control on wheat seedlings; assay type: in vivo; conditions: for pest or weed control at 100 ppm / pest or weed control at 121.5 g/ha: Zymoseptoria tritici, Wheat Leaf Blotch; for pest or weed control at 100 ppm: high volume application; for pest or weed control at 121.5 g/ha: low volume application, 121.5 g/H; for SEPTTR 1DP disease control / SEPTTR 3DC disease control: High volume application; for pest or weed control at 100 ppm / SEPTTR 1DP disease control / SEPTTR 3DC disease control: 100 ppm
Outline: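 Wheat seedlings (Yuma, first leaf emerged) sprayed to run-off with compound in acetone/water with 110 ppm Triton X-100, or track-sprayed as EC with 0.1% Trycol 5941. Septoria tritici spores inoculated before or after treatment. Dew chambers, then 20 °C greenhouse. Percent disease control derived from severity (0–100%) relative to untreated plants.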

[2] = tested on: Puccinia triticina; Synonym: Puccinia recondite f. sp. tritici; assay: Wheat brown rust (PUCCRT) disease control on wheat seedlings; assay type: in vivo; conditions: for pest or weed control at 100 ppm / pest or weed control at 121.5 g/ha: Puccinia triticina, Wheat Brown Rust; for pest or weed control at 100 ppm: high volume application; for pest or weed control at 121.5 g/ha: low volume application, 121.5 g/H; for PUCCRT 1DP disease control / PUCCRT 3DC disease control: High volume application; for pest or weed control at 100 ppm / PUCCRT 1DP disease control / PUCCRT 3DC disease control: 100 ppm
Outline: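 Acetone solutions diluted in nine volumes of water with 110 ppm Triton X-100 sprayed to run-off on first-leaf Yuma wheat seedlings (track spray: EC with 0.1% Trycol 5941). Puccinia triticina spores inoculated before or after treatment; overnight dark dew at 22° C., 100% RH, then greenhouse at 24° C. for disease development.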

[3] = 24 h, 1 Day Protectant, read-out: Disease Control SEPTTR 1 DP 100 ppm
[4] = 24 h, 1 Day Protectant, read-out: Disease Control SEPTTR 1 DP 121.5 g/H
[5] = 72 h, 3 Day Curative, read-out: Disease Control SEPTTR 3 DC 100 ppm
[6] = 72 h, 3 Day Curative, read-out: Disease Control SEPTTR 3 DC 121.5 g/H
[7] = 24 h, 1 Day Protectant, read-out: Disease Control PUCCRT 1 DP 100 ppm
[8] = 24 h, 1 Day Protectant, read-out: Disease Control PUCCRT 1 DP 121.5 g/H
[9] = 72 h, 3 Day Curative, read-out: Disease Control PUCCRT 3 DC 100 ppm
[10] = 72 h, 3 Day Curative, read-out: Disease Control PUCCRT 3 DC 121.5 g/H

| Compound | pest or weed control at 100 ppm [1, 3] | pest or weed control at 121.5 g/ha [1, 4] | pest or weed control at 100 ppm [1, 5] | pest or weed control at 121.5 g/ha [1, 6] | pest or weed control at 100 ppm [2, 7] | pest or weed control at 121.5 g/ha [2, 8] | pest or weed control at 100 ppm [2, 9] | pest or weed control at 121.5 g/ha [2, 10] | SEPTTR 1DP disease control ([1]; 1 Day Protectant) | SEPTTR 3DC disease control ([1]; 3 Day Curative) | PUCCRT 1DP disease control ([2]; 1 Day Protectant) | PUCCRT 3DC disease control ([2]; 3 Day Curative) |
| --- | --- | --- | --- | --- | --- | --- | --- | --- | --- | --- | --- | --- |
| CCCO[C@H]1CCC[C@H](NC(=O)c2nccc(OC)c2OC(C)=O)C(=O)O[C@@H](C)[C@@H]1Oc1cccc(Cl)c1 [F286] | 80 to 100% | 80 to 100% | 80 to 100% | 80 to 100% | 80 to 100% | 80 to 100% | 80 to 100% | 0 to 80% |  |  |  |  |
| CCCO[C@H]1CCC[C@H](NC(=O)c2nccc(OC)c2OC(C)=O)C(=O)O[C@@H](C)[C@@H]1Oc1ccc(-c2ccccc2)cc1 [F287] | 80 to 100% | 80 to 100% | 80 to 100% | 80 to 100% | 80 to 100% | 80 to 100% | 80 to 100% | 80 to 100% |  |  |  |  |
| C=C(C)c1ccc(O[C@H]2[C@H](C)OC(=O)[C@@H](NC(=O)c3nccc(OC)c3O)CCC[C@@H]2OCCC)cc1 [F288] | 80 to 100% |  | 80 to 100% |  | 80 to 100% |  | 80 to 100% |  |  |  |  |  |
| C=C(C)c1ccc(O[C@H]2[C@H](C)OC(=O)[C@@H](NC(=O)c3nccc(OC)c3OC(C)=O)CCC[C@@H]2OCCC)cc1 [F289] | 80 to 100% | 80 to 100% | 80 to 100% | 80 to 100% | 80 to 100% | 80 to 100% | 80 to 100% | 80 to 100% |  |  |  |  |
| CCCOC(=O)O[C@H]1CCC[C@H](NC(=O)c2nccc(OC)c2O)C(=O)O[C@@H](C)[C@@H]1Oc1cc(C)cc(C)c1 [F290] | 0 to 80% |  | 0 to 80% |  | 80 to 100% |  | 80 to 100% |  |  |  |  |  |
| CCCOC(=O)O[C@H]1CCC[C@H](NC(=O)c2nccc(OC)c2OC(C)=O)C(=O)O[C@@H](C)[C@@H]1Oc1cc(C)cc(C)c1 [F291] | 80 to 100% |  | 80 to 100% |  | 80 to 100% |  | 0 to 80% |  |  |  |  |  |
| N-[(3S,7S,8S,9S)-7,8-dibenzyloxy-9-methyl-2-oxo-oxonan-3-yl]-3-hydroxy-4-methoxypyridine-2-carboxamide [F15] |  |  |  |  |  |  |  |  | A (80-100) | A (80-100) | A (80-100) | A (80-100) |
| [2-[[(3S,7S,8S,9S)-7-(cyclopentoxy)-9-methyl-2-oxo-8-propoxy-oxonan-3-yl]carbamoyl]-4-methoxy-3-pyridyl]3-methoxypropanoate [F19] |  |  |  |  |  |  |  |  | A (80-100) | A (80-100) | A (80-100) | A (80-100) |
| [2-[[(3S,7S,8S,9S)-8-isobutoxy-9-methyl-7-(2-methylallyloxy)-2-oxo-oxonan-3-yl]carbamoyl]-4-methoxy-3-pyridyl]acetate [F18] |  |  |  |  |  |  |  |  | A (80-100) | A (80-100) | A (80-100) | A (80-100) |
| [4-methoxy-2-[[(3S,7S,8S,9S)-9-methyl-7,8-bis(2-methylallyloxy)-2-oxo-oxonan-3-yl]carbamoyl]-3-pyridyl]oxymethyl acetate [F16] |  |  |  |  |  |  |  |  | A (80-100) | A (80-100) | A (80-100) | A (80-100) |
| [4-methoxy-2-[[(3S,7S,8S,9S)-9-methyl-7,8-bis(2-methylallyloxy)-2-oxo-oxonan-3-yl]carbamoyl]-3-pyridyl]oxymethyl-2-methylpropanoate [F17] |  |  |  |  |  |  |  |  | A (80-100) | A (80-100) | A (80-100) | A (80-100) |
